In the supplement of paper PMC11208160:

test: recombinant UMI read abundance after kanamycin selection (control-corrected) (log10(CPM+1)); higher = more efficient recombination; extreme values may be limits of the assay; sequences stand for … in AGTGCAGAGAAAATCGGCCAGTTTTCTCTGCCTGCAGTCCGCATGCCGTGGGACCCCTTGGGTTCTAACCTGTTGCCTAGATTTATGCAGCGGACTGCCTTTCTCCCAAAGTGATAAACCGG…AGGTTGGTTTCACT; site = the 11-nt donor
Outline: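 In a pooled Escherichia coli screen for the IS621 bridge recombinase, donor and donor-binding-loop pairs were each placed with a 12-nt UMI on a plasmid bearing a promoterless kanamycin gene. This library was co-electroporated with a target plasmid encoding a fixed target and T7-inducible recombinase, and cells were plated either on IPTG (0.07 mM) plus kanamycin or without selection, in two replicates each. Recombinant UMIs were PCR-amplified across the donor–target junction and sequenced, and counts were converted to CPM, averaged over replicates, scaled by control-derived factors and reported as log10(CPM+1).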
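Note: IS621 bridge recombinase in Escherichia coli cells against a fixed T5 target plasmid.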

Going from “AAAGTATCATGGACCGGTTTTCCCGGTAATCCGTATTTGGA (site AAAGTATCTTC)” to “TCCGCTACATGGACCGGTTTTCCCGGTAATCCGTATTTGAT (site TCCGCTACTAT)”, the “recombinant UMI read abundance (log10)” value falls from 2.45 to 0.00615.

Compared with “GGCTCTGCATGGACCGGTTTTCCCGGTAATCCGTATTTGCT (site GGCTCTGCTAG)”, “GTTGCTGCATGGACCGGTTTTCCCGGTAATCCGTATTTGGC (site GTTGCTGCTGC)” is lower in “recombinant UMI read abundance (log10)” value: 1.66 for the first, 0.902 for the second.

“GGATAGACATGGACCGGTTTTCCCGGTAATCCGTATTTGGC (site GGATAGACTGA)” and “TCATACTCATGGACCGGTTTTCCCGGTAATCCGTATTTGCA (site TCATAGTCTTG)” are within 0.2 log units of each other in “recombinant UMI read abundance (log10)” value: 1.7 for the first, 1.54 for the second.

Going from “AGTCCAACATGGACCGGTTTTCCCGGTAATCCGTATTTGTA (site CGTCCAACTTA)” to “AAACGCACATGGACCGGTTTTCCCGGTAATCCGTATTTGTG (site AAACGCACTCA)”, the “recombinant UMI read abundance (log10)” value rises from 0 to 0.245.

Compared with “AATTTGTCATGGACCGGTTTTCCCGGTAATCCGTATTTGAT (site AATTTGTCTAT)”, “GCGTATGCATGGACCGGTTTTCCCGGTAATCCGTATTTGTA (site GCGTATGCTTA)” is higher in “recombinant UMI read abundance (log10)” value: 0.517 for the first, 2.99 for the second.

First: GTGCATGCATGGACCGGTTTTCCCGGTAATCCGTATTTGGT (site GTGCATGCTTC)
Second: AATGTGGCATGGACCGGTTTTCCCGGTAATCCGTATTTGAC (site AATGTGACTGT)
The “recombinant UMI read abundance (log10)” value of the first is lower: 0.0184 for the first, 1.16 for the second.

First: AGATGGGCATGGACCGGTTTTCCCGGTAATCCGTATTTGGA (site AGATGGGCTTC)
Second: CATTGGACATGGACCGGTTTTCCCGGTAATCCGTATTTGCC (site CATTGGACTGG)
The “recombinant UMI read abundance (log10)” value of the first is lower: 1.22 for the first, 1.73 for the second.

“GATTGGGCATGGACCGGTTTTCCCGGTAATCCGTATTTGAC (site GATTGGTCTGT)” and “AGCTCAGCATGGACCGGTTTTCCCGGTAATCCGTATTTGAG (site AGCTCAGCTCC)” are within 0.2 log units of each other in “recombinant UMI read abundance (log10)” value: 0 for the first, 0.026 for the second.

First: CGCCACACATGGACCGGTTTTCCCGGTAATCCGTATTTGTA (site CCCCACACTTA)
Second: TAGCCTTCATGGACCGGTTTTCCCGGTAATCCGTATTTGAT (site TAGCCTTCTAC)
The “recombinant UMI read abundance (log10)” value of the first is higher: 0.261 for the first, 0.0113 for the second.

Compared with “TTCACGGCATGGACCGGTTTTCCCGGTAATCCGTATTTGTC (site TTCACGGCTGA)”, “CGAGAAGCATGGACCGGTTTTCCCGGTAATCCGTATTTGTC (site CGAGAAGCTGA)” is higher in “recombinant UMI read abundance (log10)” value: 0.624 for the first, 2.25 for the second.

Going from “GGATTGGCATGGACCGGTTTTCCCGGTAATCCGTATTTGGT (site GGAATGGCTAC)” to “GGATAGACATGGACCGGTTTTCCCGGTAATCCGTATTTGCC (site GGATAGACTGG)”, the “recombinant UMI read abundance (log10)” value rises from 0.341 to 2.73.

Going from “ACACATCCATGGACCGGTTTTCCCGGTAATCCGTATTTGGC (site ACACATCCTGC)” to “AAGCACGCATGGACCGGTTTTCCCGGTAATCCGTATTTGGG (site AGGCACGCTCC)”, the “recombinant UMI read abundance (log10)” value falls from 1.5 to 0.0204.

“ACCCTCTCATGGACCGGTTTTCCCGGTAATCCGTATTTGGG (site ACCCTCTCTCC)” and “TCTGCCCCATGGACCGGTTTTCCCGGTAATCCGTATTTGGG (site TCTGCCCCTCC)” are within 0.2 log units of each other in “recombinant UMI read abundance (log10)” value: 0.0124 for the first, 0.00716 for the second.

Going from “CTGCTACCATGGACCGGTTTTCCCGGTAATCCGTATTTGCT (site CTGCAACCTAG)” to “ATCTATACATGGACCGGTTTTCCCGGTAATCCGTATTTGCC (site ATCTATACTGA)”, the “recombinant UMI read abundance (log10)” value rises from 0 to 1.23.

Compared with “CGGGATCCATGGACCGGTTTTCCCGGTAATCCGTATTTGCT (site CGGAATCCTAA)”, “ATGTAGGCATGGACCGGTTTTCCCGGTAATCCGTATTTGGC (site ATGTAAGCTGC)” is higher in “recombinant UMI read abundance (log10)” value: 0.0224 for the first, 2.28 for the second.

First: TGTACACCATGGACCGGTTTTCCCGGTAATCCGTATTTGAC (site AGTACACCTGT)
Second: CCCTAGACATGGACCGGTTTTCCCGGTAATCCGTATTTGCC (site CCCTAGGCTGG)
The “recombinant UMI read abundance (log10)” value of the first is lower: 0 for the first, 1.18 for the second.

First: AGAGACGCATGGACCGGTTTTCCCGGTAATCCGTATTTGAG (site AGAGACGCTCT)
Second: CTCGGCCCATGGACCGGTTTTCCCGGTAATCCGTATTTGTT (site CACGGCCCTAA)
The “recombinant UMI read abundance (log10)” value of the first is higher: 2.67 for the first, 0.0311 for the second.

First: GATGAGACATGGACCGGTTTTCCCGGTAATCCGTATTTGAA (site GATGAGACTTT)
Second: CGGTACCCATGGACCGGTTTTCCCGGTAATCCGTATTTGAG (site CGGTACCCTCT)
The “recombinant UMI read abundance (log10)” value of the first is higher: 1.82 for the first, 0.188 for the second.

First: CTCGGCGCATGGACCGGTTTTCCCGGTAATCCGTATTTGCC (site CTCGGCGCTGG)
Second: GACAAATCATGGACCGGTTTTCCCGGTAATCCGTATTTGGT (site GACAAAACTAC)
The “recombinant UMI read abundance (log10)” value of the first is higher: 2.12 for the first, 0 for the second.

Going from “CGATCCTCATGGACCGGTTTTCCCGGTAATCCGTATTTGCG (site CGATCCTCTCG)” to “ACTTATGCATGGACCGGTTTTCCCGGTAATCCGTATTTGCT (site ACTTATGCTAG)”, the “recombinant UMI read abundance (log10)” value falls from 2.64 to 0.0248.

“CACCTGGCATGGACCGGTTTTCCCGGTAATCCGTATTTGGA (site CACGTGGCTTC)” and “TTCCAAGCATGGACCGGTTTTCCCGGTAATCCGTATTTGAG (site CTCCAAGCTCT)” are within 0.2 log units of each other in “recombinant UMI read abundance (log10)” value: 0.0355 for the first, 0.00912 for the second.

First: CTGGAGACATGGACCGGTTTTCCCGGTAATCCGTATTTGCA (site CTGGAAACTTG)
Second: CCCATATCATGGACCGGTTTTCCCGGTAATCCGTATTTGGC (site CCCATATCTGG)
The “recombinant UMI read abundance (log10)” value of the first is higher: 2.32 for the first, 0 for the second.

Going from “TGGCCGGCATGGACCGGTTTTCCCGGTAATCCGTATTTGGC (site TGGCCGGCTGC)” to “GCGAAGCCATGGACCGGTTTTCCCGGTAATCCGTATTTGTG (site GCGAAGCCTCG)”, the “recombinant UMI read abundance (log10)” value falls from 0.862 to 0.0255.

“ATCCAACCATGGACCGGTTTTCCCGGTAATCCGTATTTGAG (site ATCCAACCTCT)” and “TGTTGCCCATGGACCGGTTTTCCCGGTAATCCGTATTTGTA (site TGTTACCCTTA)” are within 0.2 log units of each other in “recombinant UMI read abundance (log10)” value: 0 for the first, 0.032 for the second.

“CTAATATCATGGACCGGTTTTCCCGGTAATCCGTATTTGAC (site CTACTATCTGT)” and “TAGCTAGCATGGACCGGTTTTCCCGGTAATCCGTATTTGTA (site TAGCTAGCTTC)” are within 0.2 log units of each other in “recombinant UMI read abundance (log10)” value: 0 for the first, 0.0102 for the second.

Going from “CGCTAATCATGGACCGGTTTTCCCGGTAATCCGTATTTGCT (site CGCTAATCTAG)” to “TCCAATTCATGGACCGGTTTTCCCGGTAATCCGTATTTGCC (site TCTAATTCTGG)”, the “recombinant UMI read abundance (log10)” value falls from 1.97 to 0.

Compared with “TATCCCGCATGGACCGGTTTTCCCGGTAATCCGTATTTGTT (site TATCCCGCTAA)”, “GTAGGGACATGGACCGGTTTTCCCGGTAATCCGTATTTGAC (site GTAGGGACTGT)” is higher in “recombinant UMI read abundance (log10)” value: 0.479 for the first, 2.63 for the second.

First: TTATGTACATGGACCGGTTTTCCCGGTAATCCGTATTTGGG (site TTATGTACTCC)
Second: CACTCCTCATGGACCGGTTTTCCCGGTAATCCGTATTTGCT (site CACTCCTCTAG)
The “recombinant UMI read abundance (log10)” value of the first is lower: 0.0157 for the first, 3.09 for the second.

For “TAGCTAGCATGGACCGGTTTTCCCGGTAATCCGTATTTGAT (site TAGCTAGCTAT)”, the “recombinant UMI read abundance (log10)” value was 1.59.
